Experimental data as given in patent US20230084927A1, “GLUCOSE UPTAKE INHIBITORS AND USES THEREOF” (METABOMED LTD., priority 2019, published 2023).

Each compound was assayed on SDH-KO-HRAS cells (SDHB-deficient) (assay: Cellular / differential toxicity assay (CellTiter-Glo, 3 days)). Details: Mus musculus, 72 h, toxicity, SDH-KO cells, 3 days, CellTiter-Glo; read-out: EC50 (uM) SDH-KO-HTAS-C17.
Format: cell-based, murine
Protocol: (§1) Identification of compounds that target specifically SDH-deficient cells was done by screening a library of small-molecule by using a differential toxicity screen with SDHB-proficient vs. SDHB-deficient cells (the […] cells were described in Cardaci 2015).
(§2) Cells Used for the Differential Assays: SDH-WT; SDH-KO-HRAS
(§3) Cell Culture Conditions: • Medium: DMEM-F12 medium+1 mM Glutamine+3% FBS • Plates: 96 well plate—Black, clear flat bottom • Incubation time: 3 days • Compound concentration: 10 point dilution starting from 10 uM to 0.0065 uM or a lower range when needed. • Viability assay at the end of incubation: Celltiter-Glo (CTG) from Promega.
(§4) Protocol: • Day 1: Plate cells in 96 well plate together with the appropriate concentration of compound.
(§5) Incubate for 3 days at 37° C. in 5% CO2 tissue culture incubator. • Day 4: Check viability of cells by adding CTG reagent and read luminescence in plate reader
(§6) SDH-WT and SDH-KO cells were grown in DMEM F12 supplemented with 1 mM Glutamine+3% FBS were treated with different concentrations of the indicated compounds in FIG. 11. Cell viability was determined 72 hours later by CellTiter Glue reagent (Promega), the luminescence was measured with ClarioStar reader (BMG) and the EC50s were calculated by Prism.
as §6, with “compounds.” for “compounds in FIG. 11.”
(§7) The cells were grown in DMEM F12 supplemented with 1 mM Glutamine+3% FBS were treated with different concentrations of the indicated compounds. Cell viability was determined 72 hours later by CellTiter Glue reagent (Promega), the luminescence was measured with ClarioStar reader (BMG) and the EC50s were calculated by Prism. Murine SDHB-WT/KO, HRAS transformed isogenic pair (FIG. 12A); UOK269, Human Tumor-derived SDHB-deficient RCC in their WT counterpart with re-expression of SDHB (FIG. 12B); and ACHN, RCC cells, and their SDHB-KO (SDHB CRISPRed out) isogenic cells (FIG. 12C).

Question: Which EC50 does the source give for Cc1nc(NCC2CCCO2)c2sc3nc4c(cc3c2n1)COC(C)(C)C4 (stereo not shown) [Compound 231] here?
Answer: Its EC50 is > 10 µM.

Question: Which EC50 does the source give for CC1(C)Cc2nc3sc4c(NCc5ccco5)ncnc4c3cc2CO1 [Compound 232] here?
Answer: Its EC50 is > 10 µM.

Question: With Cc1nc(N2CCCCC2)c2sc3nc4c(cc3c2n1)COC(C)(C)C4 [Compound 233] as the compound, how does the EC50 read?
Answer: Its EC50 is > 10 µM.

Question: For CCN(CC)CCNc1nc(C)nc2c1sc1nc3c(cc12)COC(C)(C)C3 [Compound 234], which EC50 is on record?
Answer: The EC50 was > 10 µM.

Question: Which EC50 does the source give for Cc1nc(NCc2ccc(OC(C)C)cc2)c2sc3nc4c(cc3c2n1)COC(C)(C)C4 [Compound 235] here?
Answer: Its EC50 is > 10 µM.

Question: For CC1CCC(C)N(c2ncnc3c2sc2nc4c(cc23)COC(C)(C)C4)C1 (stereo not shown) [Compound 236], which EC50 is on record?
Answer: The EC50 was > 10 µM.

Question: For Cc1nc(N)c2sc3nc4c(cc3c2n1)COC(C)(C)C4 [Compound 237], which EC50 is on record?
Answer: Its EC50 is 3 to 10 µM.

Question: CC1(C)Cc2nc3sc4c(NCCCO)ncnc4c3cc2CO1 [Compound 238] was tested. Which EC50 did it give?
Answer: Its EC50 is > 10 µM.

Question: For CC(C)CCNc1ncnc2c1sc1nc3c(cc12)COC(C)(C)C3 [Compound 239], which EC50 is on record?
Answer: Its EC50 is > 10 µM.

Question: How did the EC50 turn out when Cc1nc(NCCc2ccccc2)c2sc3nc4c(cc3c2n1)COC(C)(C)C4 [Compound 240] was run?
Answer: The EC50 was 3 to 10 µM.

Question: With CCCCCCCNc1nc(C)nc2c1sc1nc3c(cc12)COC(C)(C)C3 [Compound 241] as the compound, how does the EC50 read?
Answer: The EC50 was > 10 µM.

Question: With CCCCN(C)c1nc(C)nc2c1sc1nc3c(cc12)COC(C)(C)C3 [Compound 242] as the compound, how does the EC50 read?
Answer: Its EC50 is > 10 µM.

Question: How did the EC50 turn out when CCCCCNc1ncnc2c1sc1nc3c(cc12)COC(C)(C)C3 [Compound 243] was run?
Answer: The EC50 was 3 to 10 µM.

Question: For Cc1nc(NN)c2sc3nc4c(cc3c2n1)COC(C)(C)C4 [Compound 244], which EC50 is on record?
Answer: Its EC50 is > 10 µM.

Question: For CC1CCN(c2ncnc3c2sc2nc4c(cc23)COC(C)(C)C4)CC1 [Compound 245], which EC50 is on record?
Answer: The EC50 was > 10 µM.

Question: Which EC50 does the source give for CCCCCCCCNc1ncnc2c1sc1nc3c(cc12)COC(C)(C)C3 [Compound 246] here?
Answer: Its EC50 is > 10 µM.

Question: For CC1(C)Cc2nc3sc4c(NCC5CCCO5)ncnc4c3cc2CO1 (stereo not shown) [Compound 247], which EC50 is on record?
Answer: The EC50 was 3 to 10 µM.

Question: CCCN(CCC)c1nc(C)nc2c1sc1nc3c(cc12)COC(C)(C)C3 [Compound 248] was tested. Which EC50 did it give?
Answer: The EC50 was > 10 µM.

Question: CCCCCCCCCNc1ncnc2c1sc1nc3c(cc12)COC(C)(C)C3 [Compound 249] was tested. Which EC50 did it give?
Answer: Its EC50 is > 10 µM.

Question: Cc1nc(NCCO)c2sc3nc4c(cc3c2n1)COC(C)(C)C4 [Compound 250] was tested. Which EC50 did it give?
Answer: The EC50 was > 10 µM.

Question: How did the EC50 turn out when Cc1nc(NCCC(C)C)c2sc3nc4c(cc3c2n1)COC(C)(C)C4 [Compound 251] was run?
Answer: The EC50 was > 10 µM.

Question: Which EC50 does the source give for Cc1nc(NC(C)CCc2ccccc2)c2sc3nc4c(cc3c2n1)COC(C)(C)C4 (stereo not shown) [Compound 252] here?
Answer: Its EC50 is > 10 µM.

Question: Which EC50 does the source give for CCN(CC)c1nc(C)nc2c1sc1nc3c(cc12)COC(C)(C)C3 [Compound 253] here?
Answer: The EC50 was > 10 µM.

Question: For Cc1nc(NCc2ccccc2)c2sc3nc4c(cc3c2n1)COC(C)(C)C4 [Compound 254], which EC50 is on record?
Answer: The EC50 was > 10 µM.

Same assay, conditions: toxicity, SDH-KO cells, 3 days, CellTiter-Glo; read-out: EC50 (uM) SDH-KO-HTAS-C17

Question: Which EC50 does the source give for CCCCNc1ncnc2c1sc1nc3c(cc12)COC(C)(C)C3 [Compound 217] here?
Answer: Its EC50 is 1 to 3 µM.

Question: For C=CCNc1ncnc2c1sc1nc3c(cc12)COC(C)(C)C3 [Compound 221], which EC50 is on record?
Answer: Its EC50 is > 10 µM.

What follows are compounds tested on SDH-WT cells in the same assay as above. Details: Mus musculus, 72 h, toxicity, SDH-WT cells, 3 days, CellTiter-Glo; read-out: EC50 (uM) SDH-WT.
Format: cell-based, murine
Protocol: as §1, §2, §3, §4, §5, §6
as §6, with “compounds.” for “compounds in FIG. 11.”
as §7

Question: C=CCNc1ncnc2c1sc1nc3c(cc12)COC(C)(C)C3 [Compound 221] was tested. Which EC50 did it give?
Answer: The EC50 was > 10 µM.

Question: How did the EC50 turn out when Cc1nc(NCC2CCCO2)c2sc3nc4c(cc3c2n1)COC(C)(C)C4 (stereo not shown) [Compound 231] was run?
Answer: The EC50 was > 10 µM.

Question: Which EC50 does the source give for CC1(C)Cc2nc3sc4c(NCc5ccco5)ncnc4c3cc2CO1 [Compound 232] here?
Answer: Its EC50 is > 10 µM.

Question: Which EC50 does the source give for Cc1nc(N2CCCCC2)c2sc3nc4c(cc3c2n1)COC(C)(C)C4 [Compound 233] here?
Answer: The EC50 was > 10 µM.

Question: With CCN(CC)CCNc1nc(C)nc2c1sc1nc3c(cc12)COC(C)(C)C3 [Compound 234] as the compound, how does the EC50 read?
Answer: Its EC50 is > 10 µM.

Question: With Cc1nc(NCc2ccc(OC(C)C)cc2)c2sc3nc4c(cc3c2n1)COC(C)(C)C4 [Compound 235] as the compound, how does the EC50 read?
Answer: Its EC50 is > 10 µM.

Question: How did the EC50 turn out when CC1CCC(C)N(c2ncnc3c2sc2nc4c(cc23)COC(C)(C)C4)C1 (stereo not shown) [Compound 236] was run?
Answer: The EC50 was > 10 µM.

Question: How did the EC50 turn out when Cc1nc(N)c2sc3nc4c(cc3c2n1)COC(C)(C)C4 [Compound 237] was run?
Answer: Its EC50 is > 10 µM.

Question: With CC1(C)Cc2nc3sc4c(NCCCO)ncnc4c3cc2CO1 [Compound 238] as the compound, how does the EC50 read?
Answer: The EC50 was > 10 µM.

Question: With CC(C)CCNc1ncnc2c1sc1nc3c(cc12)COC(C)(C)C3 [Compound 239] as the compound, how does the EC50 read?
Answer: The EC50 was > 10 µM.

Question: Which EC50 does the source give for Cc1nc(NCCc2ccccc2)c2sc3nc4c(cc3c2n1)COC(C)(C)C4 [Compound 240] here?
Answer: The EC50 was > 10 µM.

Question: CCCCCCCNc1nc(C)nc2c1sc1nc3c(cc12)COC(C)(C)C3 [Compound 241] was tested. Which EC50 did it give?
Answer: The EC50 was > 10 µM.

Question: CCCCN(C)c1nc(C)nc2c1sc1nc3c(cc12)COC(C)(C)C3 [Compound 242] was tested. Which EC50 did it give?
Answer: The EC50 was > 10 µM.

Question: With CCCCCNc1ncnc2c1sc1nc3c(cc12)COC(C)(C)C3 [Compound 243] as the compound, how does the EC50 read?
Answer: The EC50 was 3 to 10 µM.

Question: With Cc1nc(NN)c2sc3nc4c(cc3c2n1)COC(C)(C)C4 [Compound 244] as the compound, how does the EC50 read?
Answer: Its EC50 is > 10 µM.

Question: For CC1CCN(c2ncnc3c2sc2nc4c(cc23)COC(C)(C)C4)CC1 [Compound 245], which EC50 is on record?
Answer: The EC50 was > 10 µM.

Question: How did the EC50 turn out when CCCCCCCCNc1ncnc2c1sc1nc3c(cc12)COC(C)(C)C3 [Compound 246] was run?
Answer: Its EC50 is > 10 µM.

Question: Which EC50 does the source give for CC1(C)Cc2nc3sc4c(NCC5CCCO5)ncnc4c3cc2CO1 (stereo not shown) [Compound 247] here?
Answer: The EC50 was > 10 µM.

Question: With CCCN(CCC)c1nc(C)nc2c1sc1nc3c(cc12)COC(C)(C)C3 [Compound 248] as the compound, how does the EC50 read?
Answer: Its EC50 is > 10 µM.

Question: Which EC50 does the source give for CCCCCCCCCNc1ncnc2c1sc1nc3c(cc12)COC(C)(C)C3 [Compound 249] here?
Answer: The EC50 was > 10 µM.

Question: For Cc1nc(NCCO)c2sc3nc4c(cc3c2n1)COC(C)(C)C4 [Compound 250], which EC50 is on record?
Answer: Its EC50 is > 10 µM.

Question: Which EC50 does the source give for Cc1nc(NCCC(C)C)c2sc3nc4c(cc3c2n1)COC(C)(C)C4 [Compound 251] here?
Answer: Its EC50 is > 10 µM.

Question: How did the EC50 turn out when CCN(CC)c1nc(C)nc2c1sc1nc3c(cc12)COC(C)(C)C3 [Compound 253] was run?
Answer: The EC50 was > 10 µM.

Question: Which EC50 does the source give for Cc1nc(NCc2ccccc2)c2sc3nc4c(cc3c2n1)COC(C)(C)C4 [Compound 254] here?
Answer: The EC50 was > 10 µM.

Same assay, conditions: toxicity, SDH-WT cells, 3 days, CellTiter-Glo; read-out: EC50 (uM) SDH-WT

Question: For CCCCNc1ncnc2c1sc1nc3c(cc12)COC(C)(C)C3 [Compound 217], which EC50 is on record?
Answer: The EC50 was 3 to 10 µM.

Question: How did the EC50 turn out when Cc1nc(NC(C)CCc2ccccc2)c2sc3nc4c(cc3c2n1)COC(C)(C)C4 (stereo not shown) [Compound 252] was run?
Answer: The EC50 was > 10 µM.
